63 molecules from a melting point compilation (Tetko et al.; mined from patent text by program, amines drawn as free bases though some values may be those of a salt) can be followed below.

As usually defined, the melting point is the temperature of the solid-liquid transition.

A value given as a limit tells only on which side of the number the result lay.

Molecule `Oc1cnc(N2CCN(CCCCn3cc(Cl)cn3)CC2)nc1` gave a melting point of 131 to 132 °C.
As for `CN1Cc2ccccc2C(OCC(O)Cn2ccnc2)c2c1nc1ccc(Br)cc1c2Cl` (stereo not drawn), the figure is 175 to 177 °C.
`CCN1CCC2(CC1)COc1cc3c(cc12)N(C(=O)c1ccc(-c2ccc(C(=O)NNC(C)=O)cc2C)cc1)CC3` gave a melting point of 154 to 157 °C.
The same measure for `COC(=O)c1c(C(=O)OC)c2n(c1C)Cc1[nH]c3ccccc3c1C2`: 252 to 253 °C; for `Cc1cccc(NC(=O)CCCCl)c1CNc1cccn2c(C)c(C)nc12`: 138 to 140 °C.
As for `Oc1ccc(-c2cnc(-c3ccccc3)[nH]c2=S)cc1O`, the figure is 220 °C; as for `CC(C)c1cccc(C(C)C)c1Oc1ccc(C#N)c(C#N)c1`, 114 to 116 °C.
The same measure for `COc1ccc(C2Sc3c(ccc4ccccc34)N(CCN(C)C)C(=O)C2OC)cc1` (stereo not drawn): 118 to 120 °C; for `CC(c1oc2ccccc2c(=O)c1-c1cccc(F)c1)n1nc(-c2ccc3cc(O)ccc3c2)c2c(N)ncnc21` (stereo not drawn): 281 to 285 °C; for `CC(C)(C(=O)O)C(=O)O`: 121 to 123 °C.
The molecule `COC1=C(OC)C(=O)c2c(cccc2S(=O)(=O)c2ccccc2)C1=O` showed a melting point of 141 to 142 °C.
As for `CCCN(C=Cc1ccc([N+](=O)[O-])c2[nH]ncc12)CCC`, the figure is 166 to 167 °C; as for `c1ccc2cc(OCCCNC3CCCCC3)ccc2c1`, 98 °C.
The same measure for `CCOC(=O)C(=Cc1cccn2cc(Br)nc12)N=[N+]=[N-]`: 149 to 151 °C; for `O=S(=O)(c1ccccc1)c1cc[nH]c1-c1ccc(Cl)cc1`: 158 to 159 °C; for `CCCc1ncc(/C=C(\Cc2cccs2)C(=O)O)n1Cc1ccccc1Cl`: 200 °C.
The same measure for `CC(=O)Nc1ccc2ccn(C3CCN(CCc4ccc(F)cc4)CC3)c2c1`: 195 to 196 °C; for `OCc1cnoc1-c1ccc(F)c(F)c1`: 72 to 73 °C; for `CCOC(=O)/C=C(/c1ccccc1)c1ccc([N+](=O)[O-])c(COS(C)(=O)=O)c1`: 87.8 °C.
`CSc1cc2c(cc1C(F)(F)F)N(C(=O)Nc1ccccc1)CC2`: the melting point lay in the range of 163 to 165 °C.
As for `C/C=C(\C(=O)N(CC)CC)c1cc(OC)c(O)c2c(Cc3ccccc3)cccc12`, the figure is 86 to 87 °C; as for `COC(=O)c1sc2cccc(C#N)c2c1N`, 169 to 170 °C; as for `Clc1cc(Cl)cc(-c2nc(-c3ccccn3)no2)c1`, 162 to 166 °C.
As for `Clc1cccc(Nc2ncnc3[nH]nc(NCc4cccc5c4OCO5)c23)c1`, the figure is 214 to 215 °C; as for `O=C(CCCC(=O)N1C(=O)OC[C@@H]1Cc1ccccc1)c1ccc(F)cc1`, 114 °C.
Take `CSc1nncn1-c1ccc(N2C[C@H](CNC(C)=O)OC2=O)cc1F`: the melting point lay in the range of 188 to 190 °C.
For `CC(=O)c1ccccc1N(C)S(C)(=O)=O`, the melting point lay in the range of 98 to 99 °C.
Regarding `Cc1nc2ccccc2c(=O)n1CCN1CCC(c2noc3cc(F)ccc23)CC1`, the melting point lay within 164 to 165 °C.
The same measure for `O=C(Nc1ccc(F)cc1)NC1C(=O)N(CC(=O)N2CCCC2)c2ccccc2N(C2CCCCC2)C1=O` (stereo not drawn): 181 to 183 °C; for `O=C(NCCO)c1cccc(-c2cccn3nc(Nc4cccc(C(F)(F)F)c4)nc23)c1`: 215 to 216 °C; for `Nc1cc(OCCCl)ccc1F`: 42 to 43 °C.
As for `C#CCSc1nnc(-c2cccs2)s1`, the figure is 71 to 73 °C; as for `COc1ccc(Cl)cc1C(=O)NCCc1ccc(Br)cc1`, 104 to 109 °C.
Molecule `CCOC(=O)Nc1c(F)cc(Cl)c2c1OC(C)(C)C2` registered a melting point of 114 to 115 °C.
For the molecule `Cc1cscc1NC(=S)Nc1cc(C(F)(F)F)cc(Cl)c1N`, the melting point was > 310 °C.
`Cc1cc(NC(=O)c2cc3cc(F)ccc3n2Cc2ccncc2)cnc1N(C)C`: the melting point is 282 to 283 °C.
`CON=C(C#N)C(=O)NC(=O)NC1CC1` had a melting point of 182 °C.
Turning to `COc1ccc2[nH]c3c(c2c1)C(=O)/C(=C/c1nc[nH]c1C)CC3`, the melting point is 133 to 135 °C.
`CC12CCC3c4ccc(C(=O)O)cc4CCC3C1CCC2C(=O)c1cc(F)cc(F)c1` (stereo not drawn): the melting point lay in the range of 258 to 261 °C.
Molecule `O=Cc1ccc(N2CCC3(CC2)OCCO3)c(Br)c1` yielded a melting point of 63 to 64 °C.
Regarding `CSc1nccn1-c1cccc(C2=Nc3cc(O)c(-c4ccccc4F)cc3NC(=O)C2)c1`, the melting point was > 250 °C.
`CCCCCCCCCCCCCCCCCCNC(=O)OCC1(CO)CCCO1` (stereo not drawn) returned a melting point of 57 to 58 °C.
The same measure for `CCOc1ccc(-c2cc(C)cn2-c2ccc(S(N)(=O)=O)cc2)cc1`: 135 to 139 °C; for `O=C(O)/C=C/c1oc(-c2ccccc2)nc1-c1ccc(Cl)cc1`: 255 to 257 °C.
The same measure for `S=C(NCCN(Cc1ccc(Cl)c(Cl)c1)c1ccc(Br)cn1)Nc1ccc(N2CCCCC2)cc1`: 146 to 148 °C.
Molecule `OC(COc1ccc(F)cc1)CN1CCC(=C2c3ccc(F)cc3CCn3ncnc32)CC1` (stereo not drawn) returned a melting point of 134 °C.
In the case of `CC(C)(C)c1nc2cc(N3CCCC3)c(N)cc2s1`, the melting point is 130 to 132 °C.
For `Nc1c(-c2ccc(Br)cc2)nc2ccc(Cl)cc2c1C(=O)O`, the melting point lay in the range of 241 to 242 °C.
For the molecule `CCCCc1oc2ccccc2c1-c1ncc(-c2ccc3cc(OCc4nnn[nH]4)ccc3c2)o1`, the melting point lay in the range of 238 to 240 °C.
As for `Cc1cc(Cl)cc(C(=O)NCC2CC2)c1NC(=O)c1cc(Br)nn1-c1ncccc1Cl`, the melting point lay within 166 to 168 °C.
Molecule `CCC1CN(Cc2c(C)cc(C)cc2C)CCN1` (stereo not drawn) returned a melting point of 111 to 114 °C.
The same measure for `O=C(OCC1OC(n2cnc3c(N(C(=O)c4ccccc4)C(=O)c4ccccc4)ncnc32)C(O)(C(=O)c2ccccc2)C1(O)C(=O)c1ccccc1)c1ccccc1` (stereo not drawn): 183 to 184 °C.
Regarding `c1cc(NC2=NCCN2)ccc1Cc1ccc(OC2CCOCC2)cc1`, the melting point fell in the range of 169 to 170 °C.
As for `CCOC(=O)C=C1CSC(NC(=O)c2ccccc2)=NN1C(=O)c1ccccc1`, the figure is 187 to 189 °C.
As for `COC(=O)c1cccc2nc(OCC(F)(F)F)n(Cc3ccc(-c4ccccc4C#N)cc3)c12`, the figure is 143 to 145 °C; as for `COc1cccc(CC(=O)O)c1OCCCc1cn(-c2ccc(C#N)nn2)nc1C(C)C`, 132 to 133 °C; as for `CCCCCCCCn1nnnc1I`, 40 °C.
As for `CC(C)Cn1c(SCc2ccccn2)nc2ccccc2c1=O`, the figure is 91.7 to 93.2 °C; as for `COc1cc(C=S2C=CN=C2N)c([N+](=O)[O-])cc1OC` (stereo not drawn), 125 to 130 °C.
Molecule `O=CC1c2ccccc2C(C=O)c2ccccc21` (stereo not drawn) had a melting point of 132 to 135 °C.
The same measure for `COC(=O)c1ccc(Sc2ccc(O)cc2)cc1`: 184 to 186 °C; for `CC(C)=CCN1Cc2cc(Cl)c(Cl)c3[nH]c(=S)n(c23)C[C@@H]1C`: 173 °C; for `COc1c(F)c(F)cc2c(O)c(C(=O)NCc3ccc(Cl)cc3)cnc12`: 248 to 251 °C.
